What was measured:
Type in all cases: in vivo
[1] = tested on: barnyardgrass (Echinochloa crus-galli); test: Test A preemergence; conditions: Preemergence; for Plant response rating, Barnyardgrass: 125 g ai/ha, visual injury after approximately 10 d, 0 to 100 scale where 0 is no effect and 100 is complete control; for Barnyardgrass plant response rating (0 to 100 scale, 0 is no effect, 100 is complete control): 500 g ai/ha, visual injury approx. 10 d
Source text: (§1) Seeds of plant species selected from barnyardgrass (Echinochloa crus-galli), Kochia (Kochia scoparia), ragweed (common ragweed, Ambrosia elatior), ryegrass, Italian (Italian ryegrass, Lolium multiflorum), crabgrass, large (Digitaria sanguinalis), giant foxtail (Setaria faberii), green foxtail (Setaria viridis), morningglory (Ipomoea spp.), pigweed (Amaranthus retroflexus), velvetleaf (Abutilon theophrasti), wheat (Triticum aestivum), and corn (Zea mays) were planted into a blend of loam soil and sand and treated preemergence with a directed soil spray using test chemicals formulated in anon-phytotoxic solvent mixture which included a surfactant.
(§2) At the same time, plants selected from these crop and weed species and also blackgrass (Alopecurus myosuroides), and Galium (catchweed bedstraw, Galium aparine) were planted in pots containing the same blend of loam soil and sand and treated with postemergence applications of test chemicals formulated in the same manner. Plants ranged in height from 2 to 10 cm and were in the one- to two-leaf stage for the postemergence treatment. Treated plants and untreated controls were maintained in a greenhouse for approximately 10 d, after which time all treated plants were compared to untreated controls and visually evaluated for injury. Plant response ratings, summarized in Table A, are based on a 0 to 100 scale where 0 is no effect and 100 is complete control. A dash (-) response means no test result.

[2] = tested on: ryegrass, Italian (Italian ryegrass, Lolium multiflorum); test: Test A preemergence; conditions: Preemergence; for Plant response rating, Ryegrass, Italian: 125 g ai/ha, visual injury after approximately 10 d, 0 to 100 scale where 0 is no effect and 100 is complete control; for Ryegrass, Italian plant response rating (0 to 100 scale, 0 is no effect, 100 is complete control): 500 g ai/ha, visual injury approx. 10 d
Source text: as §1, §2

[3] = tested on: pigweed (Amaranthus retroflexus); test: Test A preemergence; conditions: Preemergence; for Plant response rating, Pigweed: 125 g ai/ha, visual injury after approximately 10 d, 0 to 100 scale where 0 is no effect and 100 is complete control; for Pigweed plant response rating (0 to 100 scale, 0 is no effect, 100 is complete control): 500 g ai/ha, visual injury approx. 10 d
Source text: as §1, §2

Kochia (Kochia scoparia) [4] = test: Test A preemergence; conditions: Preemergence; for Plant response rating, Kochia: 125 g ai/ha, visual injury after approximately 10 d, 0 to 100 scale where 0 is no effect and 100 is complete control; for Kochia plant response rating (0 to 100 scale, 0 is no effect, 100 is complete control): 500 g ai/ha, visual injury approx. 10 d
Source text: as §1, §2

[5] = tested on: ragweed (common ragweed, Ambrosia elatior); test: Test A preemergence; conditions: Preemergence; for Plant response rating, Ragweed: 125 g ai/ha, visual injury after approximately 10 d, 0 to 100 scale where 0 is no effect and 100 is complete control; for Ragweed plant response rating (0 to 100 scale, 0 is no effect, 100 is complete control): 500 g ai/ha, visual injury approx. 10 d
Source text: as §1, §2

[6] = tested on: giant foxtail (Setaria faberii); test: Test A preemergence; conditions: Preemergence; for Plant response rating, Foxtail, Giant: 125 g ai/ha, visual injury after approximately 10 d, 0 to 100 scale where 0 is no effect and 100 is complete control; for Foxtail, Giant plant response rating (0 to 100 scale, 0 is no effect, 100 is complete control): 500 g ai/ha, visual injury approx. 10 d
Source text: as §1, §2

[7] = tested on: barnyardgrass (Echinochloa crus-galli); test: Test B flooded paddy test; conditions: Flood, 250 g ai/ha; 0 to 100 scale where 0 is no effect and 100 is complete control; 13 to 15 d
Method in brief: (§3)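 2-leaf plants; pots flooded 3 cm over soil; cpd added to paddy water; depth held; greenhouse 13–15 d; visual rating vs controls, 0 = no effect, 100 = complete control.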

[8] = tested on: sedge, umbrella (small-flower umbrella sedge, Cyperus difformis); test: Test B flooded paddy test; conditions: Flood, 250 g ai/ha; 0 to 100 scale where 0 is no effect and 100 is complete control; 13 to 15 d
Method in brief: as §3

rice (Oryra sativa) = test: Test B flooded paddy test; conditions: Flood, 250 g ai/ha; 0 to 100 scale where 0 is no effect and 100 is complete control; 13 to 15 d
Method in brief: as §3

[9] = tested on: ducksalad (Heteranthera limosa); test: Test B flooded paddy test; conditions: Flood, 250 g ai/ha; 0 to 100 scale where 0 is no effect and 100 is complete control; 13 to 15 d
Method in brief: as §3

[10] = tested on: barnyardgrass (Echinochloa crus-galli); test: Test A postemergence
Source text: as §1, §2

[11] = tested on: ryegrass, Italian (Italian ryegrass, Lolium multiflorum); test: Test A postemergence
Source text: as §1, §2

[12] = tested on: blackgrass (Alopecurus myosuroides); test: Test A postemergence
Source text: as §1, §2

[13] = tested on: pigweed (Amaranthus retroflexus); test: Test A postemergence
Source text: as §1, §2

Kochia (Kochia scoparia) [14] = test: Test A postemergence
Source text: as §1, §2

[15] = tested on: ragweed (common ragweed, Ambrosia elatior); test: Test A postemergence
Source text: as §1, §2

[16] = tested on: giant foxtail (Setaria faberii); test: Test A postemergence
Source text: as §1, §2

corn (Zea mays) = test: Test A postemergence
Source text: as §1, §2

[17] = tested on: wheat (Triticum aestivum); test: Test A postemergence
Source text: as §1, §2

[18] = tested on: Galium (catchweed bedstraw, Galium aparine); test: Test A postemergence
Source text: as §1, §2

[19] = 125 g ai/ha, postemergence, visual injury rating on 0 to 100 scale (0 no effect, 100 complete control), approx. 10 d
[20] = Postemergence, 500 g ai/ha, 0 to 100 scale where 0 is no effect and 100 is complete control
[21] = 125 g ai/ha, postemergence, visual rating after approx. 10 d, 0 to 100 scale (0 no effect, 100 complete control)

Compound | Plant response rating, Barnyardgrass [1] | Barnyardgrass plant response rating (0 to 100 scale, 0 is no effect, 100 is complete control) [1] | Plant response rating, Ryegrass, Italian [2] | Ryegrass, Italian plant response rating (0 to 100 scale, 0 is no effect, 100 is complete control) [2] | Plant response rating, Pigweed [3] | Pigweed plant response rating (0 to 100 scale, 0 is no effect, 100 is complete control) [3] | Plant response rating, Kochia (Kochia (Kochia scoparia) [4]) | Kochia plant response rating (0 to 100 scale, 0 is no effect, 100 is complete control) (Kochia (Kochia scoparia) [4]) | Plant response rating, Ragweed [5] | Ragweed plant response rating (0 to 100 scale, 0 is no effect, 100 is complete control) [5] | Plant response rating, Foxtail, Giant [6] | Foxtail, Giant plant response rating (0 to 100 scale, 0 is no effect, 100 is complete control) [6] | Plant response rating, Barnyardgrass [7] | Plant response rating, Sedge, Umbrella [8] | Plant response rating, Rice (rice (Oryra sativa)) | Plant response rating, Ducksalad [9] | Plant response rating, Barnyardgrass [10, 20] | Plant response rating, Ryegrass, Italian [11, 21] | Plant response rating, Ryegrass, Italian [11, 20] | Plant response rating, Blackgrass [12, 20] | also measured
COc1c(F)ccc(NC(=O)C2C(=O)NCC2c2cc(F)cc(F)c2)c1F (racemic) [Compound 541] | 90 | 90 | 0 | 20 | 0 | 0 | 0 | 20 | 0 | 0 | 90 | 90 | 35 | 0 | 0 | 75 | 90 | 20 | 40 | 60 | Barnyardgrass plant response rating [10, 19]: 90; Blackgrass plant response rating [12, 19]: 30; Plant response rating, Pigweed [13, 21]: 0; Plant response rating, Pigweed [13, 20]: 0; Plant response rating, Kochia (Kochia (Kochia scoparia) [14]; [21]): 0; Plant response rating, Kochia (Kochia (Kochia scoparia) [14]; [20]): 30; Plant response rating, Ragweed [15, 21]: 0; Plant response rating, Ragweed [15, 20]: 30; Plant response rating, Foxtail, Giant [16, 21]: 80; Plant response rating, Foxtail, Giant [16, 20]: 90; Plant response rating, Corn (corn (Zea mays); [21]): 0; Plant response rating, Corn (corn (Zea mays); [20]): 60; Plant response rating, Wheat [17, 21]: 20; Plant response rating, Wheat [17, 20]: 80; Plant response rating, Galium [18, 21]: 30; Plant response rating, Galium [18, 20]: 50
O=C1NCC(c2cc(F)ccc2F)C1C(=O)Nc1ccc(F)cc1F (racemic) [Compound 545] | 20 | 70 | 0 | 0 | 0 | 0 | 0 | 0 | 0 | 0 | 80 | 90 | 0 | 0 | 0 | 0 | 80 | 0 | 0 | 0 | Plant response rating, Barnyardgrass [10, 21]: 0; Plant response rating, Blackgrass [12, 21]: 0; Plant response rating, Pigweed [13, 21]: 0; Plant response rating, Pigweed [13, 20]: 0; Plant response rating, Kochia (Kochia (Kochia scoparia) [14]; [21]): 0; Plant response rating, Kochia (Kochia (Kochia scoparia) [14]; [20]): 0; Plant response rating, Ragweed [15, 21]: 0; Plant response rating, Ragweed [15, 20]: 0; Plant response rating, Foxtail, Giant [16, 21]: 0; Plant response rating, Foxtail, Giant [16, 20]: 70; Plant response rating, Corn (corn (Zea mays); [21]): 0; Plant response rating, Corn (corn (Zea mays); [20]): 0; Plant response rating, Wheat [17, 21]: 0; Plant response rating, Wheat [17, 20]: 0; Plant response rating, Galium [18, 21]: 0; Plant response rating, Galium [18, 20]: 0
O=C1NCC(c2cc(F)ccc2F)C1C(=O)Nc1cccc(F)c1F (racemic) [Compound 546] | 80 | 90 | 0 | 0 | 0 | 0 | 0 | 0 | 0 | 0 | 90 | 90 | 70 | 0 | 20 | 85 | 90 | 0 | 0 | 20 | Plant response rating, Barnyardgrass [10, 21]: 80; Plant response rating, Blackgrass [12, 21]: 0; Plant response rating, Pigweed [13, 21]: 0; Plant response rating, Pigweed [13, 20]: 0; Plant response rating, Kochia (Kochia (Kochia scoparia) [14]; [21]): 0; Plant response rating, Kochia (Kochia (Kochia scoparia) [14]; [20]): 0; Plant response rating, Ragweed [15, 21]: 0; Plant response rating, Ragweed [15, 20]: 0; Plant response rating, Foxtail, Giant [16, 21]: 70; Plant response rating, Foxtail, Giant [16, 20]: 90; Plant response rating, Corn (corn (Zea mays); [21]): 0; Plant response rating, Corn (corn (Zea mays); [20]): 20; Plant response rating, Wheat [17, 21]: 0; Plant response rating, Wheat [17, 20]: 0; Plant response rating, Galium [18, 21]: 0; Plant response rating, Galium [18, 20]: 0
O=C1NCC(c2cc(F)c(F)cc2F)C1C(=O)Nc1ccccc1F (racemic) [Compound 549] | 40 | 80 | 0 | 0 | 0 | 0 | 0 | 0 | 0 | 0 | 90 | 90 | 25 | 0 | 0 | 90 | 90 | 0 | 0 | 20 | Plant response rating, Barnyardgrass [10, 21]: 40; Plant response rating, Blackgrass [12, 21]: 0; Plant response rating, Pigweed [13, 21]: 0; Plant response rating, Pigweed [13, 20]: 0; Plant response rating, Kochia (Kochia (Kochia scoparia) [14]; [21]): 0; Plant response rating, Kochia (Kochia (Kochia scoparia) [14]; [20]): 20; Plant response rating, Ragweed [15, 21]: 0; Plant response rating, Ragweed [15, 20]: 0; Plant response rating, Foxtail, Giant [16, 21]: 20; Plant response rating, Foxtail, Giant [16, 20]: 90; Plant response rating, Corn (corn (Zea mays); [21]): 0; Plant response rating, Corn (corn (Zea mays); [20]): 0; Plant response rating, Wheat [17, 21]: 0; Plant response rating, Wheat [17, 20]: 20; Plant response rating, Galium [18, 21]: 0; Plant response rating, Galium [18, 20]: 0

Source: patent publication US12077503B2, “Substituted cyclic amides and their use as herbicides” (FMC CORPORATION, priority 2015, dated 2024)
